The values below come from patent publication EP2271341B1, “SPECIFIC INHIBITORS FOR VASCULAR ENDOTHELIAL GROWTH FACTOR RECEPTORS” (Nova Southeastern University, priority 2008, dated 2009).

Molecules are shown by their SMILES. pEC50, pIC50: −log10 of the molar value.

Series [1] deals with VEGFR. The series is described as follows: Assay of VEGF Receptor Tyrosine Kinase Activity (VEGFR immunoprecipitated from cell lysate, non-radioactive PTK ELISA). In kind it is biochemical. Conditions: VEGFR immunoprecipitated from cell lysate with VEGFR specific antibody, read-out: IC50 for inhibiting VEGFR kinase. The text has this: Protein Tyrosine Kinases (PTKs) perform a critical role in signal transduction pathways that control cell proliferation, differentiation, metabolism, and apoptosis. Phosphorylation of proteins by PTKs is essential for the regulation of these biological mechanisms and defects in these pathways may result in a number of human diseases, including cancer. The important aspect of these enzymes in cellular regulation is accentuated by the fact that for a large number of kinases a corresponding viral oncogene product has been identified. […] CHEMICON's non-radioactive Tyrosine Kinase Activity Assay provides a simple, convenient and specific method for quantification and comparative determination of a wide range of PTKs. […]
The non-radioactive Tyrosine Kinase Activity Assay Kit consists of a synthetic Biotinylated Peptide Substrate, a Biotinylated Phosphopeptide, purified Phosphotyrosine specific monoclonal antibody conjugated to horseradish peroxidase (HRP) and other components required to perform 96 ELISA-based assays. […] The quantity of phosphate incorporated into the tyrosine kinase substrate is determined utilizing the phosphopeptide standard curve. […] The assay reaction would be terminated by the addition of 100 µl of stop solution and finally, the absorbance was measured on a standard microplate reader at 450nm. […]
(In general: An ELISA detects its analyte on a solid surface through an enzyme-linked reagent.)

Series [2] deals with Human umbilical vein endothelial cell. The series is described as follows: In Vitro Angiogenesis Assay (morphogenesis / tube formation on Matrigel, ECMatrix kit). In kind it is cell-based. Details: key to Results: Individual cells, well separated (+++++); Cells begin to migrate and align themselves (++++); Cells begin to line but not sprouting (+++); Visible Sprouting (++); Closed polygons begins to form (+). The note with it: for Results: score of the extent of cellular networks, HUVECs 10^4 cells/well, inhibitors 1mM and 10 mM, 8 hours incubation at 37 °C, higher score = greater inhibition of angiogenesis. The method, then: Human umbilical vein endothelial cell was purchased from Cambrex Co. (East Rutherford, New Jersey) and maintained in EGM (Endothelial Growth Medium) supplemented with 2% FBS, 0.1% EGF, 0.1% Hydrocortisone, 0.1% GA-1000 and 0.4% BBE.
The morphogenesis assay on Matrigel was performed according to the manufacturer's instructions (Chemicon International). The ECMatrix™ kit consists of laminin, collagen type IV, heparan sulfate, proteoglycans, entactin and nidogen. It also contains various growth factors (TGF-β, FGF) and proteolytic enzymes (plasminogen, tPA, MMPs) that are normally produced in EHS tumors. The incubation condition was optimized for maximal tube-formation as follows: 50µl of EC Matrix™ was suitably diluted in the ratio 9:1 with 10X diluent buffer and used for coating the 96-well plate. The coated plates were incubated at 37° C for 1 hr. to allow the Matrix solution to solidify. In the meantime the HUVECs that were cultured for 24 hours in EGM with 2% FBS was trypsinised and resuspended in the growth media and the cells were counted. After 1 hr. pre-incubation of the plate with Matrix solution, the HUVECs were plated at 10^4 cells/well in the absence or in the presence of different VEGFR inhibitors (1mM and 10 mM). After 8 hours incubation at 37 °C, the cell three-dimensional organization (cellular network structures) was examined under an inverted photomicroscope. Each treatment was performed in triplicate.
Activated endothelial cells form cellular networks (mesh like structures) resembling capillary tubes sprouting into the stromal space. The formation of these cellular networks is a dynamic process, which started migration and alignment of cells followed by the development of capillary tubes like structures, sprouting of new branches and finally the formation of the cellular networks. Although this in vitro angiogenesis kit is designed only as a qualitative assay, we have made an attempt to quantitate the degree of angiogenesis using a scoring method. The scoring was based on the extent of the cellular networks that were observed as follows: • Individual cells, well separated (+++++) • Cells begin to migrate and align themselves (++++) • Cells begin to line but not sprouting (+++) • Visible Sprouting (++) • Closed polygons begins to form (+).
According to our qualitative assessment, the higher the scoring the greater the efficiency of the compound for inhibiting endothelial cell mediated angiogenesis.

In series [3] the test system is MCF-7. The series is described as follows: Cytotoxicity towards breast carcinoma cell line MCF-7. The note with it: MCF-7 breast carcinoma cell line. In kind it is cell-based.
Series [4] has as its system GI-101A. The series is described as follows: Cytotoxicity towards breast carcinoma cell line GI-101A. In kind it is cell-based. Conditions: GI-101A breast carcinoma cell line.

A word on the pIC50: it is the negative decadic logarithm of the IC50, by convention in mol/L. As a reminder, the pEC50 is the negative decadic logarithm of the EC50, by convention in mol/L. Consider `COc1ccc(NCC(O)Cn2cnc3c2c(=O)n(C)c(=O)n3C)cc1` (centres unmarked) [Example 1], for which the pIC50 in series [1] is 6.40. The negative logarithm of the EC50 (pEC50) in series [2] (Homo sapiens, Endothelial cell, estimated, read-out: EC50 value for anti-antigenic effect) was 6.60. The Results result in series [2] is reported as “+++++”. Moreover, the cytotoxicity entry in series [3] and in series [4] was “produced cytotoxicity” throughout.

In the case of `CCC(CNCCO)Nc1nc2c(c(=O)n(C)c(=O)n2C)n1Cc1ccccc1` (centres unmarked) [Example 7], the Results result in series [2] was “++”.

Regarding `CCCCCCCCCCCCCCCCCCOc1ccc(C(=O)CC(=O)Nc2ccc(Sc3cccc(C(=O)O)c3)c(C(=O)O)c2)cc1` [Example 5], the Results result in series [2] was “+++”.

Consider `CCCCCCCCCCCCCCCCOc1ccc(C(NNS(=O)(=O)c2cccc(C(=O)O)c2)N2CCCCC2)cc1` (centres unmarked) [Example 2], for which the Results result in series [2] is “++++”.
